Structures are written as SMILES. Read-outs that look alike come from different tables or passages of the source. Bounds are passed on as bounds.

The target in assay [1] is Chk1 kinase (Homo sapiens (Human), UniProt O14757). The assay is described as follows: Chk1 kinase inhibitory activity (LanthaScreen TR-FRET). It is filed as biochemical. As to conditions: graded. The procedure:
(§1) The compounds of Examples 1 to 66 were diluted at various concentrations and transferred to a 384-well plate by 5 μl, and 10 μl of a mixed solution (2×) of Chk1 kinase (Thermo, P3040) or Chk2 kinase (Thermo, PV3367) and a substrate (Thermo, PV3508) was added to wells treated with the compounds. 5 μl of an ATP solution at a 4× concentration was added to the test well and reacted at room temperature for 1 hour. 20 μl of LanthaScreen Terbium-CREB p-Ser 133 antibody (Thermo, PV3542) was added to the reaction well and incubated at room temperature for 30 minutes. Conversion data was measured by an EnVision 2014 multi label reader (PerkinElmer). The activity for each concentration was determined by the ratio (FRET ratio=FR) of the value obtained by dividing the value at 520 nm by the value at 490 nm among the emission wavelength values for each wavelength (Em520/Em490). The results obtained for each concentration of the compounds were the average values obtained in two wells, and the IC50 values of the compounds were calculated using PRIZM software for analysis of the results. IC50 in Table 7 was graded as follows.
For orientation: In TR-FRET formats the signal depends on donor and acceptor labels being close together.

The target in assay [2] is Chk2 kinase (Homo sapiens (Human), UniProt O96017). The assay can be described thus: Chk2 kinase inhibitory activity (LanthaScreen TR-FRET). It is filed as biochemical. As to conditions: graded. As for the experimental part:
as §1

For assay [3], the system named is human breast cancer cell line MCF-7. The assay can be described thus: Cancer cell growth inhibition test (CellTiter-Glo). The class given is cell-based. The conditions noted are these: MCF-7, 72 hours. As for the experimental part: The human breast cancer cell line MCF-7 was treated with trypsin and harvested. The number of cells was counted, and about 3000 cells/80 μl per well were inoculated into a 96 well plate (Corning) and then incubated in a 37° C. incubator for 24 hours. Thereafter, the example compounds were diluted in a culture solution at various concentrations, and each well was treated with 20 μl and stored in a cell culture incubator for 72 hours. In the case of the group administered in combination, the example compounds and cisplatin or doxorubicin were diluted in a culture solution at various concentrations, and each well was treated with 20 μl. After 72 hours, each well was treated with 30 μl of CellTiter-Glo solution (Promega), and the luminescence was read on a Victor3 multi label reader (PerkinElmer).
Relative viability (%)=(value of each test well/value of well treated with DMSO alone)×100
The results obtained for each concentration for each example compound were the average values obtained from three wells, and PRIZM software was used for analysis of the results.

Setting [4] is: Homo sapiens, MCF7, 72 h, graded, read-out: Celltiter glo analysis (IC50).

Sequence of Chk1 kinase (O14757 whole entry): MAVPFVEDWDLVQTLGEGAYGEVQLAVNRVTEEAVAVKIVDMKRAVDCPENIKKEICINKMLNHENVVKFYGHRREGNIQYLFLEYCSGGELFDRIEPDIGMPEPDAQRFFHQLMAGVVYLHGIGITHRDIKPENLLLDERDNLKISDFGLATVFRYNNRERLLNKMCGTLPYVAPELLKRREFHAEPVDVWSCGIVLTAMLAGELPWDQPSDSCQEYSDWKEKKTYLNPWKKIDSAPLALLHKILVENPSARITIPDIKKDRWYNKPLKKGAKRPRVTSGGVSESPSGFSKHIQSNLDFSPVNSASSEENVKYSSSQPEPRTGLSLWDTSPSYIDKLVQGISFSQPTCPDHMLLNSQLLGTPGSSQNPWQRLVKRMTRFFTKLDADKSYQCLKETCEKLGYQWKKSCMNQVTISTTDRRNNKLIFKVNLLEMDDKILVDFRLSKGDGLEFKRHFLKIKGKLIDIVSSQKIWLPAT
Sequence of Chk2 kinase (O96017 whole entry): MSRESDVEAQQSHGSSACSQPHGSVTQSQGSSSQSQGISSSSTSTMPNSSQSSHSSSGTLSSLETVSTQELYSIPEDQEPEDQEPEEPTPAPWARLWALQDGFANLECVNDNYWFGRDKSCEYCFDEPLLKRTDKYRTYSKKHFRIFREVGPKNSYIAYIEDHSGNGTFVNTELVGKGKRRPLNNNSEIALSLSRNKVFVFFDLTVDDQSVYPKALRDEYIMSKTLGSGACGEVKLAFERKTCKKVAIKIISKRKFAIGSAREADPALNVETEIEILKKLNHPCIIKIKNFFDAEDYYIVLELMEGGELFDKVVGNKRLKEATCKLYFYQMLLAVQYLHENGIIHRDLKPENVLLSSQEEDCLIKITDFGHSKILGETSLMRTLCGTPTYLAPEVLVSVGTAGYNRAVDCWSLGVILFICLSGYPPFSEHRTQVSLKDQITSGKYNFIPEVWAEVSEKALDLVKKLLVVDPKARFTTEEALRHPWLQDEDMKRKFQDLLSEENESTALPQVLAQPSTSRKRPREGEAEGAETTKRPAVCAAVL

A word on the IC50: it is the midpoint of a concentration-inhibition curve. Consider `Cn1cc(-c2cccc(-c3cnc(N)c(C(=O)N[C@H]4CCCNC4)n3)c2)cn1` [Example 16, (S)-3-amino-6-(3-(1-methyl-1H-pyrazol-4-yl)phenyl)-N-(piperidin-3-yl)pyrazine-2-carboxamide], for which the values for the 50% inhibitory concentration (IC50) in assay [1], in assay [2] and in assay [3] (setting [4]) were 10 to 100 nM, not above 10 nM and 10000 to 100000 nM, respectively.

`Cn1cc(-c2cccc(-c3cnc(N)c(C(=O)N[C@@H]4CNC[C@@H](F)C4)n3)c2)cn1` [Example 17, 3-amino-N-((3S,5S)-5-fluoropiperidin-3-yl)-6-(3-(1-methyl-1H-pyrazol-4-yl)phenyl)pyrazine-2-carboxamide]: the half-inhibitory concentration (IC50) was 10 to 100 nM in assay [1], not above 10 nM in assay [2] and 10000 to 100000 nM in assay [3] (setting [4]).

Consider `Cn1cc(-c2ccc(F)c(-c3cnc(N)c(C(=O)N[C@H]4CCCNC4)n3)c2)cn1` [Example 18, (S)-3-amino-6-(2-fluoro-5-(1-methyl-1H-pyrazol-4-yl)phenyl)-N-(piperidin-3-yl)pyrazine-2-carboxamide], for which the half-inhibitory concentration (IC50) was more than 1000 nM in assay [1], 10 to 100 nM in assay [2] and 10000 to 100000 nM in assay [3] (setting [4]).

As to `Cn1cc(-c2ccc(F)c(-c3cnc(N)c(C(=O)N[C@@H]4CNC[C@@H](F)C4)n3)c2)cn1` [Example 19, 3-amino-6-(2-fluoro-5-(1-methyl-1H-pyrazol-4-yl)phenyl)-N-((3S,5S)-5-fluoropiperidin-3-yl) pyrazine-2-carboxamide], the results for the concentration for half-maximal inhibition (IC50) in assay [1], in assay [2] and in assay [3] (setting [4]) were 100 to 1000 nM, 10 to 100 nM and 10000 to 100000 nM, respectively.

`Nc1ncc(-c2ccnc(-c3cnn(C4CC4)c3)c2)nc1C(=O)N[C@H]1CCCNC1` [Example 20, (S)-3-amino-6-(2-(1-cyclopropyl-1H-pyrazol-4-yl)pyridin-4-yl)-N-(piperidin-3-yl)pyrazine-2-carboxamide]: the half-maximal inhibitory concentration (IC50) in assay [1] is 10 to 100 nM; in assay [2] it was 10 to 100 nM; in assay [3] (setting [4]), 10000 to 100000 nM.

`Nc1ncc(-c2ccnc(-c3cnn(CC(F)(F)F)c3)c2)nc1C(=O)N[C@H]1CCCNC1` [Example 21, (S)-3-amino-N-(piperidin-3-yl)-6-(2-(1-(2,2,2-trifluoroethyl)-1H-pyrazol-4-yl)pyridin-4-yl)pyrazine-2-carboxamide]: the IC50 in assay [1] is 10 to 100 nM; in assay [2] it was not above 10 nM; in assay [3] (setting [4]), 10000 to 100000 nM.

Take `N#CCn1cc(-c2cccc(-c3cnc(N)c(C(=O)N[C@@H]4CNCC[C@H]4O)n3)c2)cn1` [Example 25, 3-amino-6-(3-(1-(cyanomethyl)-1H-pyrazol-4-yl)phenyl)-N-((3R,4R)-4-hydroxypiperidin-3-yl)pyrazine-2-carboxamide]: the concentration for half-maximal inhibition (IC50) was more than 1000 nM in assay [1], 10 to 100 nM in assay [2] and more than 100000 nM in assay [3] (setting [4]).

For the compound `N#CCn1cc(-c2cccc(-c3cnc(N)c(C(=O)N[C@@H]4CNC[C@@H](F)C4)n3)c2)cn1` [Example 26, 3-amino-6-(3-(1-(cyanomethyl)-1H-pyrazol-4-yl)phenyl)-N-((3S,5S)-5-fluoropiperidin-3-yl) pyrazine-2-carboxamide], the concentration for half-maximal inhibition (IC50) in assay [1] was 100 to 1000 nM; in assay [2], 10 to 100 nM; in assay [3] (setting [4]) it was more than 100000 nM.

In the case of `N#CCn1cc(-c2cccc(-c3cnc(N)c(C(=O)N[C@H]4CCCNC4)n3)c2)cn1` [Example 27, (S)-3-amino-6-(3-(1-(cyanomethyl)-1H-pyrazol-4-yl)phenyl)-N-(piperidin-3-yl)pyrazine-2-carboxamide], the IC50 was 10 to 100 nM in assay [1], 10 to 100 nM in assay [2] and more than 100000 nM in assay [3] (setting [4]).

With `CC(C)(O)Cn1cc(-c2cccc(-c3cnc(N)c(C(=O)N[C@@H]4CNCC[C@H]4O)n3)c2)cn1` [Example 28, 3-amino-6-(3-(1-(2-hydroxy-2-methylpropyl)-1H-pyrazol-4-yl)phenyl)-N-((3R,4R)-4-hydroxypiperidin-3-yl)pyrazine-2-carboxamide], the figures for the half-inhibitory concentration (IC50) in assay [1], in assay [2] and in assay [3] (setting [4]) were more than 1000 nM, not above 10 nM and more than 100000 nM, respectively.

On to `CC(C)(O)Cn1cc(-c2cccc(-c3cnc(N)c(C(=O)N[C@@H]4CNC[C@@H](F)C4)n3)c2)cn1` [Example 29, 3-amino-N-((3S,5S)-5-fluoropiperidin-3-yl)-6-(3-(1-(2-hydroxy-2-methylpropyl)-1H-pyrazol-4-yl)phenyl)pyrazine-2-carboxamide], for which the figures for the half-maximal inhibitory concentration (IC50) in assay [1], in assay [2] and in assay [3] (setting [4]) were 10 to 100 nM, not above 10 nM and 10000 to 100000 nM, respectively.

On to `CC(C)(O)Cn1cc(-c2cccc(-c3cnc(N)c(C(=O)N[C@H]4CCCNC4)n3)c2)cn1` [Example 30, (S)-3-amino-6-(3-(1-(2-hydroxy-2-methylpropyl)-1H-pyrazol-4-yl)phenyl)-N-(piperidin-3-yl)pyrazine-2-carboxamide], for which the IC50 in assay [1] is 10 to 100 nM; in assay [2], not above 10 nM; in assay [3] (setting [4]) it was more than 100000 nM.

In the case of `Nc1ncc(-c2cc(-c3cnn(C4CC4)c3)ccc2F)nc1C(=O)N[C@H]1CCCNC1` [Example 31, (S)-3-amino-6-(5-(1-cyclopropyl-1H-pyrazol-4-yl)-2-fluorophenyl)-N-(piperidin-3-yl)pyrazine-2-carboxamide], the 50% inhibitory concentration (IC50) in assay [1] fell in the range of 100 to 1000 nM; in assay [2] it was 10 to 100 nM; in assay [3] (setting [4]), 10000 to 100000 nM.

In the case of `CC(C)(O)Cn1cc(-c2cc(-c3cnc(N)c(C(=O)N[C@@H]4CNCC(F)(F)C4)n3)c(F)cn2)cn1` [Example 32, (S)-3-amino-N-(5,5-difluoropiperidin-3-yl)-6-(5-fluoro-2-(1-(2-hydroxy-2-methylpropyl)-1H-pyrazol-4-yl)pyridin-4-yl)pyrazine-2-carboxamide], the half-maximal inhibitory concentration (IC50) was more than 1000 nM in assay [1]; more than 1000 nM in assay [2]; 33100 nM in assay [3] (Homo sapiens, MCF7, 72 h, alone, read-out: Administered alone (IC50)); 10000 to 100000 nM in assay [3] (setting [4]); 4580 nM in assay [3] (combination with cisplatin, read-out: Administered in combination with cisplatin (IC50)); 910 nM in assay [3] (combination with doxorubicin, read-out: Administered in combination with doxorubicin (IC50)).

As for `CC(C)(O)Cn1cc(-c2cc(-c3cnc(N)c(C(=O)N[C@@H]4CNCC(F)(F)C4)n3)ccn2)cn1` [Example 33, (S)-3-amino-N-(5,5-difluoropiperidin-3-yl)-6-(2-(1-(2-hydroxy-2-methylpropyl)-1H-pyrazol-4-yl)pyridin-4-yl)pyrazine-2-carboxamide], the values for the half-inhibitory concentration (IC50) in assay [1], in assay [2] and in assay [3] (setting [4]) were more than 1000 nM, 100 to 1000 nM and 10000 to 100000 nM, respectively.

With `CC(C)(O)Cn1cc(-c2ccc(F)c(-c3cnc(N)c(C(=O)N[C@@H]4CNC[C@@H](F)C4)n3)c2)cn1` [Example 35, 3-amino-6-(2-fluoro-5-(1-(2-hydroxy-2-methylpropyl)-1H-pyrazol-4-yl)phenyl)-N-((3S,5S)-5-fluoropiperidin-3-yl)pyrazine-2-carboxamide], the half-inhibitory concentration (IC50) in assay [1] was more than 1000 nM; in assay [2], 10 to 100 nM; in assay [3] (setting [4]) it was 10000 to 100000 nM.

As to `CC(C)(O)Cn1cc(-c2ccc(F)c(-c3cnc(N)c(C(=O)N[C@@H]4CNCC(F)(F)C4)n3)c2)cn1` [Example 36, (S)-3-amino-N-(5,5-difluoropiperidin-3-yl)-6-(2-fluoro-5-(1-(2-hydroxy-2-methylpropyl)-1H-pyrazol-4-yl)phenyl)pyrazine-2-carboxamide], the half-inhibitory concentration (IC50) was more than 1000 nM in assay [1], more than 1000 nM in assay [2] and 10000 to 100000 nM in assay [3] (setting [4]).

As for `Cc1ccc(-c2cnn(CC(C)(C)O)c2)cc1-c1cnc(N)c(C(=O)N[C@@H]2CNC[C@@H](F)C2)n1` [Example 37, 3-amino-N-((3S,5S)-5-fluoropiperidin-3-yl)-6-(5-(1-(2-hydroxy-2-methylpropyl)-1H-pyrazol-4-yl)-2-methylphenyl) pyrazine-2-carboxamide], the IC50 in assay [1] was more than 1000 nM; in assay [2] it was 10 to 100 nM; in assay [3] (setting [4]), more than 100000 nM.

As for `Cc1ccc(-c2cnn(CC(C)(C)O)c2)cc1-c1cnc(N)c(C(=O)N[C@@H]2CNCC(F)(F)C2)n1` [Example 38, (S)-3-amino-N-(5,5-difluoropiperidin-3-yl)-6-(5-(1-(2-hydroxy-2-methylpropyl)-1H-pyrazol-4-yl)-2-methylphenyl)pyrazine-2-carboxamide], the IC50 in assay [1] was more than 1000 nM; in assay [2], more than 1000 nM; in assay [3] (setting [4]), 10000 to 100000 nM.

`Nc1ncc(-c2nccc(-c3cnn(CC(F)(F)F)c3)n2)nc1C(=O)N[C@H]1CCCNC1` [Example 39, (S)-3-amino-N-(piperidin-3-yl)-6-(4-(1-(2,2,2-trifluoroethy)-1H-pyrazol-4-yl)pyrimidin-2-yl)pyrazine-2-carboxamide]: the IC50 was 100 to 1000 nM in assay [1], not above 10 nM in assay [2] and 10000 to 100000 nM in assay [3] (setting [4]).

The values above are taken from patent publication US20250188059A1, “NOVEL COMPOUND AND USE THEREOF FOR INHIBITING CHECKPOINT KINASE 2” (ARUM THERAPEUTICS INC, priority 2022, published 2025).
